Data published in patent publication US9353104B2, “Substituted pyridizinone derivatives as PDE10 inhibitors” (priority 2013, dated 2016).

Each molecule was assayed against human PDE10A2 (Homo sapiens (Human), UniProt Q9Y233) (assay: PDE10 fluorescence polarization (IMAP FP) inhibition assay). Conditions: human PDE10A2 lysate, FAM-labeled cAMP 50 nM, room temperature; read-out: PDE10A Ki.
Format: biochemical
Outline: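 Cytoplasmic lysate of AD293 cells transiently expressing human PDE10A2, diluted for ~20% conversion of 50 nM FAM-cAMP, in 10 mM Tris pH 7.2, 10 mM MgCl2, 1 mM DTT, 0.01% Tween-20. Reaction 30 min at room temperature, read by IMAP fluorescence polarization; 10-point 3-fold titrations, 1% DMSO as 0%, reference PDE10 inhibitor at 5,000× Ki as 100%.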

Chain of human PDE10A2 (Q9Y233 267-1055): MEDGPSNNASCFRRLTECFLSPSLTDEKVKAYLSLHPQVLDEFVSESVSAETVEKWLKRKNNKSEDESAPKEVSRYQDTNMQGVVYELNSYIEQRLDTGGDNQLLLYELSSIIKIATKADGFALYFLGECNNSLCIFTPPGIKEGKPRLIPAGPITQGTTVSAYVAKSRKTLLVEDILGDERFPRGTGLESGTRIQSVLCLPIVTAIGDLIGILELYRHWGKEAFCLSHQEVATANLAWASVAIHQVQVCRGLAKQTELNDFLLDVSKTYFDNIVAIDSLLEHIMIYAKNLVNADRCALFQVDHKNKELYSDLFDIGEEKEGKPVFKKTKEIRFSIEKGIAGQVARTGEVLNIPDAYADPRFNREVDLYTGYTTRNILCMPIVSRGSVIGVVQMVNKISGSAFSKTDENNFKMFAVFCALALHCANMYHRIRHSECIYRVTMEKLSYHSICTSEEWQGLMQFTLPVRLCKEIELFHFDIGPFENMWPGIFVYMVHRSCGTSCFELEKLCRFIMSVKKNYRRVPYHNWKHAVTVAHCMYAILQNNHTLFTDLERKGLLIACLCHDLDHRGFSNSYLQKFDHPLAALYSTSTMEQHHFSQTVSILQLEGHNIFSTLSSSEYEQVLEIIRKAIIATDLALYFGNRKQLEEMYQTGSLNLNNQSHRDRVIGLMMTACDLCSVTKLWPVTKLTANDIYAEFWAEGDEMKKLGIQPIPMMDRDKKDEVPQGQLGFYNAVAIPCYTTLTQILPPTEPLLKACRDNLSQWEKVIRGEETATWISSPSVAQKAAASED

Compound | Ki [pM]
Cc1nnc(CNc2cc(OC[C@H]3C[C@@H]3c3ccc(OC(F)F)cn3)nn(C)c2=O)s1 [Example 5, 6-(((1S,2S)-2-(5-(difluoromethoxy)pyridin-2-yl)cyclopropyl)methoxy-)-2-methyl-4-((5-methyl-1,3,4-thiadiazol-2-yl)-methylamino)pyridazin-3(2H)-one] | 157
Cc1ccc([C@H]2C[C@@H]2COc2cc(NCc3ccnn3C)c(=O)n(C)n2)nc1 [Example 99, 2-methyl-4-(((1-methyl-1H-pyrazol-5-yl)methyl-)amino)-6-(((1S,2S)-2-(5-methylpyridin-2-yl)cyclo-propyl)methoxy)pyridazin-3(2H)-one] | 138
COc1ccc([C@H]2C[C@@H]2COc2cc(NCc3c(C)nn(C)c3Cl)c(=O)n(C)n2)nc1 [Example 39, 4-((5-chloro-1,3-dimethyl-1H-pyrazol-4-yl)methylamino)-6-(((1S,2S)-2-(5-methoxypyridin-2-yl)cyclopropyl)methoxy)-2-methylpyridazin-3(2H)-one] | 1580
COc1ccc([C@H]2C[C@@H]2COc2cc(NCc3nc(C)c(C)s3)c(=O)n(C)n2)nc1 [Example 126, 4-((4,5-dimethylthiazol-2-yl)methylamino)-6-(((1S,2S)-2-(5-methoxy-pyridin-2-yl)cyclopropyl-)methoxy)-2-methyl-pyridazin-3(2H)-one] | 48
COc1ccc([C@H]2C[C@@H]2COc2cc(NCc3cc(C)ccn3)c(=O)n(C)n2)nc1 [Example 105, 6-(((1S,2S)-2-(5-methoxy-pyridin-2-yl)cyclopropyl-)methoxy)-2-methyl-4-(((-4-methylpyridin-2-yl)-methyl)amino)pyridazin-3(2H)-one] | 276
Cc1ncc(CNc2cc(OC[C@H]3C[C@@H]3c3ccc(F)cn3)nn(C)c2=O)s1 [Example 22, 6-(((1S,2S)-2-(5-fluoropyridin-2-yl)cyclopropyl)methoxy)-2-methyl-4-((2-methylthiazol-5-yl)methylamino)pyridazin-3(2H)-one] | 175
COc1ccc([C@H]2C[C@@H]2COc2cc(NCc3cn(C)nn3)c(=O)n(C)n2)nc1 [Example 147, 6-(((1S,2S)-2-(5-methoxy-pyridin-2-yl)-cyclopropyl-)methoxy)-2-methyl-4-((1-methyl-1H-1,2,3-triazol-4-yl)methylamino)pyridazin-3(2H)-one] | 66

Now those with a lower Ki, led by results:

Ki [pM] | Compound
34 | Cc1ccc(CNc2cc(OC[C@H]3C[C@@H]3c3ccc(F)cn3)nn(C)c2=O)c(C)n1 [Example 53, 4-(((2,6-dimethylpyridin-3-yl)methyl)amino)-6-(((1S,2S)-2-(5-fluoro-pyridin-2-yl)cyclopropyl-)-methoxy)-2-methyl-pyridazin-3(2H)-one]
23 | Cc1ccc(CNc2cc(OC[C@H]3C[C@@H]3c3ccn(C)n3)nn(C)c2=O)c(C)n1 [Example 51, 4-(((2,6-dimethylpyridin-3-yl)methyl)amino)-2-methyl-6-(((1S,2S)-2-(1-methyl-1H-pyrazol-3-yl)cyclopropyl)methoxy)-pyridazin-3(2H)-one]
14 | COc1ccc([C@H]2C[C@@H]2COc2cc(NCc3cnn(C)c3)c(=O)n(C)n2)nc1 [Example 131, 6-(((1S,2S)-2-(5-methoxy-pyridin-2-yl)cyclopropyl-)methoxy)-2-methyl-4-((1-methyl-1H-pyrazol-4-yl)methylamino)pyridazin-3(2H)-one]
4 | COc1ccc([C@H]2C[C@@H]2COc2cc(NCc3ncc(C)s3)c(=O)n(C)n2)nc1 [Example 130, 6-(((1S,2S)-2-(5-methoxy-pyridin-2-yl)cyclopropyl-)methoxy)-2-methyl-4-((5-methyl-thiazol-2-yl)-methylamino-)pyridazin-3(2H)-one]
2 | Cc1ccc(CNc2cc(OC[C@H]3C[C@@H]3c3ccc4c(n3)CCC4)nn(C)c2=O)c(C)n1 [Example 56, 6-(((1S,2S)-2-(6,7-dihydro-5H-cyclopenta-[b]pyridin-2-yl)cyclo-propyl)methoxy)-4-(((2,6-dimethylpyridin-3-yl)-methyl)amino)-2-methyl-pyridazin-3(2H)-one]
